Columns and labels:
[1] = Pharmacokinetics, plasma concentrations by LC/MS/MS; format: in vivo; conditions: CD1 mice
Protocol: The in vivo properties of ‘A3’ were evaluated. The pharmacokinetics of ‘A3’ after a single oral (25 mg/kg) and intravenous (10 mg/kg) dose of in CD1 mice were determined. Plasma was obtained at pre-specified time points (15 min to 24 hours) and ‘A3’ concentrations were determined by LC/MS/MS. […] Oral bioavailability of ‘A3’ was insignificant. The time-point of maximal CHFR suppression at 4 hrs follow the peak in A3 plasma levels with some delay.

PARP1-CHFR interaction = target: T1, PARP1-CHFR interaction (Homo sapiens, UniProt Q96EP1); assay: Glutathione affinity pull-down of GST tagged PARP1 with CHFR in HEK293 cells; format: cell-based; conditions: 10 uM, 16 hours
T1 construct: expressed in transfected cells; CHFR endogenous
T1 sequence (Q96EP1 1-664): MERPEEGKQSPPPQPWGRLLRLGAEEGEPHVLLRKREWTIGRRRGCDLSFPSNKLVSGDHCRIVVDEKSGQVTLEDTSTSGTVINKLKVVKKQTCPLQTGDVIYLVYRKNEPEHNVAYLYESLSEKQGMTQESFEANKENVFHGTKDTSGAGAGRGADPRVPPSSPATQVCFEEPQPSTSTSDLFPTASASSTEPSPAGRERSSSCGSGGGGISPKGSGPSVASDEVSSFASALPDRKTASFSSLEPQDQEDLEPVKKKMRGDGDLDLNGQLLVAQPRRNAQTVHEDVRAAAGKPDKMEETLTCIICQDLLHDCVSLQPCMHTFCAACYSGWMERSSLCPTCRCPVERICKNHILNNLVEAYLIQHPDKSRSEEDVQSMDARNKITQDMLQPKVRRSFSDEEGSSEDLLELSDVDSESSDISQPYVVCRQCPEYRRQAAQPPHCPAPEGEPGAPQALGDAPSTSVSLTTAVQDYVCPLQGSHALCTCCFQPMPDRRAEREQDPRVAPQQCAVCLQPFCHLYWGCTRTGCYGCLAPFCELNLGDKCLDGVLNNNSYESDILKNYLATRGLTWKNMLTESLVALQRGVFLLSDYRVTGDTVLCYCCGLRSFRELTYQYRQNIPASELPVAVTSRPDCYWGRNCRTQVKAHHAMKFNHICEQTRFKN
Protocol: In an attempt to generate possible lead compounds for the pharmacologic inhibition of the CHFR-PARP1 interaction, a high throughput computational screen of 5,256,508 chemical structures in the MCULE database of purchasable compounds using the AutoDockVina algorithm against the published crystal structure of the CHFR-PBZ domain was performed. The 10 most promising ‘hits’ based on Autodock Vina docking scores (<−9.7) were selected for further characterization. Commercially available compounds were tested for their impact on nuclear CHFR levels (FIG. 3A). Several compounds, including ‘A2’, ‘A3’, ‘A4’ and ‘A6’ decreased CHFR levels assayed by western blotting of whole cell extracts. The impact of the above referenced compounds on the PARP1/CHFR interaction were evaluated. HEK293 cells were transfected with GST tagged PARP1 and the interaction with CHFR determined in pull down assays for those 4 compounds. […] In contrast to treatment with ABT-888, ‘A3’ completely disrupted the interaction between GST-tagged PARP-1 and CHFR (FIG. 3B). […] Since it is possible that the co-immunoprecipitation between PARP-1 and CHFR after ‘A3’ treatment was negative due to the fact that CHFR was degraded, the experiment was repeated after transfection with the Ring-domain deleted ΔR-CHFR construct, which maintained both stable CHFR and PARP1 levels even after treatment with ‘A3’. […]

CHFR = target: T2, CHFR (Homo sapiens, UniProt Q96EP1); assay: CHFR immunohistochemistry in A549 tumor xenografts; format: in vivo, nude mice; set-up: endogenous in cells; host or cells: A549 cells grown as flank xenografts in nude mice; conditions: single ip injection 10 mg/kg
T2 sequence (Q96EP1 1-664): T1 sequence (Q96EP1 1-664)
Protocol: 4 hrs after i.p. injection a significant reduction in nuclear CHFR staining was observed, indicating an in vivo reproducible pharmacodynamic effect of ‘A3’.
‘A3’ is capable of disrupting the interaction between CHFR and PARP1 in vitro, leading to a depletion of CHFR expression and to sensitization towards the cytotoxic effects of taxanes. The impact of ‘A3’ administration on lung tumor xenografts was evaluated. A549 NSCLC cells were injected into the flank of nude mice and allowed to establish for approximately 14 days. Once tumors had reached a volume about 100 mm3, mice received a single ip injection of ‘A3’ at 10 mg/kg. Mice were then euthanized at 1, 2, 4 and 24 hours after and CHFR in the xenografts was analyzed by immunohistochemistry (FIG. 5A).

PARP1 = PARP1 (Homo sapiens, UniProt P09874); assay: In vitro parylation studies; format: biochemical
Sequence of PARP1 (P09874 whole entry, species assumed): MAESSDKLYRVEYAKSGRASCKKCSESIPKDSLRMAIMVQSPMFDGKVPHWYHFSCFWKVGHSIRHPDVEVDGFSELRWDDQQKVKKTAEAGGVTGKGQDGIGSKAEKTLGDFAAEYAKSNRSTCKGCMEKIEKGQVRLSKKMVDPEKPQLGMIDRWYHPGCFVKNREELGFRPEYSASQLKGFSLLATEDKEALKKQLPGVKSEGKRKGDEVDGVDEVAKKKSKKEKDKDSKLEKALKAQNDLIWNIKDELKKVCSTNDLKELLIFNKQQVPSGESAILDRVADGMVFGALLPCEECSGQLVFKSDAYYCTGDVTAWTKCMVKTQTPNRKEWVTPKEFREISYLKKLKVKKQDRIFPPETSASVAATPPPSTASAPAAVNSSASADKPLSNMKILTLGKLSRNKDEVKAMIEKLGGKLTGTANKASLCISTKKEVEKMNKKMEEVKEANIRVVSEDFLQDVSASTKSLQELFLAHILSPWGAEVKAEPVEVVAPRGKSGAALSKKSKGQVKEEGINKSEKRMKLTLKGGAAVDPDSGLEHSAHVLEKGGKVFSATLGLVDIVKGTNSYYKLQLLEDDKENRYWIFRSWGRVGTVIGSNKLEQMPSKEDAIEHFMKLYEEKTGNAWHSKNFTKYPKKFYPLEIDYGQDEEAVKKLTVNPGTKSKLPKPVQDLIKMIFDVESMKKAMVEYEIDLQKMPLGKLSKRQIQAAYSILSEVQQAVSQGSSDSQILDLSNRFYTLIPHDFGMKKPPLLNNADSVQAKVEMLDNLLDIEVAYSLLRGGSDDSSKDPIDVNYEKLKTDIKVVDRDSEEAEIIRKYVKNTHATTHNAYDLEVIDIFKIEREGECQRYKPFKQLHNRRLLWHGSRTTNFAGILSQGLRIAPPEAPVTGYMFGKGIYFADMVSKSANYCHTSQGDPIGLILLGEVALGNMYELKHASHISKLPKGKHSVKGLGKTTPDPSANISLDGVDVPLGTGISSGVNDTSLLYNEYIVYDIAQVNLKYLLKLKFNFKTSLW

A549 cells = assay: Colony formation assays in A549 cells transfected with shRNA; format: cell-based
Protocol: Various cell lines of different tissues of origin and with different CHFR expression status were exposed to 1 hour of docetaxel and 72 hours of ‘A3’. Effects were defined as 1−colony count (treatment)/colony count (control). The nature of the interaction between the two compounds was analyzed by the Bliss additivity method. […] For subsequent colony formation assays, cell lines were characterized into CHFR expressing vs. CHFR deficient cell lines by Western-Blot.
FIG. 4D knock-down of either CHFR or PARP1 in A549 cells alleviates the synergy that is observed in A549 cells transfected with scrambled shRNA. (*=synergy)
Finally, colony formation assays were performed on a panel of cell lines of different cancer types such as lung-, breast-, and colon cancer.

**Q.** With `Cc1ccc(N2C(=O)NC(=O)C(=Cc3cn(Cc4ccccc4)c4ccccc34)C2=O)cc1C` [A3, 5-((1-benzyl-1H-indol-3-yl)methylene)-1-(3,4-dimethylphenyl)pyrimidine-2,4,6(1H,3H,5H)-trione] as the compound, how does the distribution ([1]; following intravenous dosing 10 mg/kg) read?
**A.** rapidly and widely distributed

**Q.** And the “relative bioavailability from dose normalized AUC values” ([1]; single oral (25 mg/kg) and intravenous (10 mg/kg) dose)?
**A.** 19.5%

**Q.** What about the Oral bioavailability ([1]; single oral dose 25 mg/kg) of the same compound?
**A.** insignificant

**Q.** What about the “interaction between PARP1 and CHFR” value (PARP1-CHFR interaction) of the same compound?
**A.** completely inhibited an interaction between PARP1 and CHFR

**Q.** What about the “nuclear CHFR expression in xenografts” value (CHFR; 24 hr time point) of the same compound?
**A.** restored to baseline levels

**Q.** What about the “nuclear CHFR expression in xenografts” value (CHFR; after 4 hours) of the same compound?
**A.** Significant suppression of nuclear CHFR expression

**Q.** What about the PARP1 auto-parylation (PARP1) of the same compound?
**A.** no impact on PARP1 auto-parylation

**Q.** And the “synergy between A3 and docetaxel, colony formation” value (A549 cells; A549 after CHFR or PARP1 knockdown)?
**A.** not after CHFR or PARP1 knockdown

**Q.** What about the “synergy between A3 and docetaxel, colony formation” value (A549 cells; A549 scrambled shRNA) of the same compound?
**A.** Synergy between A3 and docetaxel was maintained only in the A549 scramble cell line

— patent publication US9907797B2, “Combination therapies for overcoming resistance to mitotic agents during chemotherapy” (EMORY UNIVERSITY, priority 2014, dated 2018)
